Activity data for eleven compounds are collected here from ChEMBL document CHEMBL1158498, “Synthesis of 4'-ester analogs of resveratrol and their evaluation in malignant melanoma and pancreatic cell lines” (Bioorg Med Chem Lett, 2010).

Activity calls are given as the source filed them. No cut-off for these calls is given here.

In the first data set the test system is DM738. The experiment in a line: Cytotoxicity against human DM738 cells at 50 uM after 72 hrs by WST-1 assay. It counts as functional, cell-based. In general terms: Tetrazolium dyes change colour on reduction, which living cells bring about.
In the case of `CC(C)C(=O)Oc1ccc(/C=C/c2cc(O)cc(O)c2)cc1`, the result was Active.
`CCCCCC(=O)Oc1ccc(/C=C/c2cc(O)cc(O)c2)cc1`: the outcome was Active.
On the same count and under the same terms, the entry for `Oc1cc(F)cc(/C=C/c2ccc(F)cc2)c1` is “Active”.
The same measure, in the same setting: the entry for `CCCC(=O)Oc1ccc(/C=C/c2cc(O)cc(O)c2)cc1` is “Active”.

A further data set concerns DM443. The experiment in a line: Cytotoxicity against human DM443 cells at 50 uM after 72 hrs by WST-1 assay. It counts as functional, cell-based.
Turning to `CC(C)C(=O)Oc1ccc(/C=C/c2cc(O)cc(O)c2)cc1`, the outcome was Active.
On to `CCCCCC(=O)Oc1ccc(/C=C/c2cc(O)cc(O)c2)cc1`, for which the result was Active.
As for `Oc1cc(F)cc(/C=C/c2ccc(F)cc2)c1`, the outcome was Active.
In the case of `CCCC(=O)Oc1ccc(/C=C/c2cc(O)cc(O)c2)cc1`, the outcome was Active.

A further data set relates to NHDF. The experiment in a line: Cytotoxicity against human NHDF cells at 50 uM after 72 hrs by WST-1 assay. It counts as cell-based.
As to `O=C(CCCCC(=O)Oc1ccc(/C=C/c2cc(O)cc(O)c2)cc1)Oc1ccc(/C=C/c2cc(O)cc(O)c2)cc1`, the Activity entry is “Non-toxic”.
Same read-out and setting: in the case of `CC(=O)Oc1ccc(/C=C/c2cc(O)cc(O)c2)cc1` it was “Non-toxic”.

Another data set relates to PANC-1. The experiment in a line: Cytotoxicity against human PANC1 cells at 50 uM after 72 hrs by WST-1 assay. It counts as functional, cell-based.
In the case of `CC(=O)Oc1ccc(/C=C/c2cc(OC(C)=O)cc(OC(C)=O)c2)cc1`, the result was Active.
As for `CC(=O)Oc1ccc(/C=C/c2cc(O)cc(O)c2)cc1`, the outcome was Active.

Another data set concerns PANC-1. The experiment in a line: Cytotoxicity against human PANC1 cells at 50 uM after 72 hrs by WST-1 assay in presence of gemcitabine. It counts as functional, cell-based.
Turning to `CCCCCCCCCCCCCCCC(=O)Oc1ccc(/C=C/c2cc(O)cc(O)c2)cc1`, the Activity entry was “Not toxic”.
The same measure, in the same setting: the entry for `Oc1ccc(/C=C/c2cc(O)cc(O)c2)cc1` is “Not toxic”.
Regarding `CC(=O)Oc1ccc(/C=C/c2cc(OC(C)=O)cc(OC(C)=O)c2)cc1`, the Activity entry is “Not toxic”.
With `CC(C)C(=O)Oc1ccc(/C=C/c2cc(O)cc(O)c2)cc1`, the Activity result was “Not toxic”.
The same measure, in the same setting: in the case of `CCCCCC(=O)Oc1ccc(/C=C/c2cc(O)cc(O)c2)cc1` it was “Not toxic”; in that of `O=C(CCCCC(=O)Oc1ccc(/C=C/c2cc(O)cc(O)c2)cc1)Oc1ccc(/C=C/c2cc(O)cc(O)c2)cc1`, “Not toxic”.
Turning to `Oc1cc(F)cc(/C=C/c2ccc(F)cc2)c1`, the Activity result is “Not toxic”.
Still for that read-out and setting: in the case of `CCCC(=O)Oc1ccc(/C=C/c2cc(O)cc(O)c2)cc1` it was “Not toxic”; in that of `CC(=O)Oc1cc(/C=C/c2ccc(O)cc2)cc(OC(C)=O)c1`, “Not toxic”; in that of `CC(=O)Oc1cc(O)cc(/C=C/c2ccc(O)cc2)c1`, “Not toxic”.
